Reference: patent EP0137689B1, “GRF analogs” (THE SALK INSTITUTE FOR BIOLOGICAL STUDIES, priority 1983, dated 1986)

Test system: cells of rat pituitary glands
Experiment: in vitro growth hormone release assay in rat pituitary cell cultures (ir GH measured by radioimmunoassay)
Type: cell-based
Conditions: for intrinsic biological activity / potency: in equimolar ratios, side-by-side comparison with synthetic hGRF(1-44)-NH2, incubation 3 to 4 hours, GH release; for intrinsic activity / specific activity: multiple doses factorial design experiments; for intrinsic activity: compared with hGRF(1-44)-NH2; for specific activity: relative to hGRF(1-44)-NH2
Description: To determine the effectiveness of the peptide to promote the release of growth hormone, in vitro assays are carried out using synthetic hGRF(1-44)-NH2 in side-by-side comparison with pGRF(1-44)-NH2 and of a GRF Reference Standard having a known effectiveness to promote the release of growth hormone from pituitary cells. The GRF Reference standard is described and defined in Brazeau, et al., Endocrinology, Vol. 110 A538 (1982) and is an amount of a preparation of rat hypothalamic origin that produces a half- maximal response in terms of GH release in a pituitary cell monolayer bioassay. Cultures are used which include cells of rat pituitary glands removed some four to five days previously. Both cultures of a defined standard medium and cultures which are considered optimal for the secretion of growth hormone are used for the comparative testing, in the general manner described in Brazeau, et al. Regulatory Peptides, 1, 255, 1981. Incubation with the substance to be tested is carried out for 3 to 4 hours, and aliquots of the culture medium are removed and processed to measure their contents in inmunoreactive GH(ir GH) by a well- characterized radioimmunoassay.
To determine the effectiveness of the peptide to promote the release of growth hormone, in vito assays are carried out using synthetic hGRF(1―44)-NH2 in side-by-side comparison with equimolar concentrations of bGRF(1―44)-NH2, as set forth hereinbefore in Example II.
To determine the effectiveness of the peptide to promote the release of growth hormone, in vitro assays are carried out using synthetic hGRF(1―44)-NH2 in side-by-side comparison with equimolar concentrations of the synthetic oGRF(1-44)-NH2 of Example V as set forth hereinbefore in Example II.

| Compound | intrinsic biological activity | potency | intrinsic activity | specific activity |
| --- | --- | --- | --- | --- |
| CC[C@H](C)[C@H](NC(=O)[C@H](C)NC(=O)[C@H](CC(=O)O)NC(=O)[C@H](C)NC(=O)[C@@H](N)Cc1ccc(O)cc1)C(=O)N[C@@H](Cc1ccccc1)C(=O)N[C@H](C(=O)N[C@@H](CC(N)=O)C(=O)N[C@@H](CO)C(=O)N[C@@H](Cc1ccc(O)cc1)C(=O)N[C@@H](CCCNC(=N)N)C(=O)N[C@@H](CCCCN)C(=O)N[C@H](C(=O)N[C@@H](CC(C)C)C(=O)NCC(=O)N[C@@H](CCC(N)=O)C(=O)N[C@@H](CC(C)C)C(=O)N[C@@H](CO)C(=O)N[C@@H](C)C(=O)N[C@@H](CCCNC(=N)N)C(=O)N[C@@H](CCCCN)C(=O)N[C@@H](CC(C)C)C(=O)N[C@@H](CC(C)C)C(=O)N[C@@H](CCC(N)=O)C(=O)N[C@@H](CC(=O)O)C(=O)N[C@H](C(=O)N[C@@H](CCSC)C(=O)N[C@@H](CC(N)=O)C(=O)N[C@@H](CCCNC(=N)N)C(=O)N[C@@H](CCC(N)=O)C(=O)N[C@@H](CCC(N)=O)C(=O)NCC(=O)N[C@@H](CCC(=O)O)C(=O)N[C@@H](CCCNC(=N)N)C(=O)N[C@@H](CC(N)=O)C(=O)N[C@@H](CCC(N)=O)C(=O)N[C@@H](CCC(=O)O)C(=O)N[C@@H](CCC(N)=O)C(=O)NCC(=O)N[C@@H](C)C(=O)N[C@@H](CCCCN)C(=O)N[C@H](C(=O)N[C@@H](CCCNC(=N)N)C(=O)N[C@@H](CC(C)C)C(N)=O)C(C)C)[C@@H](C)CC)[C@@H](C)CC)[C@@H](C)O [oGRF(1-44), H-Tyr-Ala-Asp-Ala-lle-Phe-Thr-Asn-Ser-Tyr-Arg-Lys-lle-Leu-Gly-Gln-Leu-Ser-Ala-Arg-Lys-Leu-Leu-Gln-Asp- lle-Met-Asn-Arg-Gln-Gln-Gly-Glu-Arg-Asn-Gln-Glu-Gln-Gly-Ala-Lys-Val-Arg-Leu-NH2] | full intrinsic biological activity | close to the same potency | about the same intrinsic activity | about 70 % of hGRF(1-44)-NH2 |
| CC[C@H](C)[C@H](NC(=O)[C@H](C)NC(=O)[C@H](CC(=O)O)NC(=O)[C@H](C)NC(=O)[C@@H](N)Cc1ccc(O)cc1)C(=O)N[C@@H](Cc1ccccc1)C(=O)N[C@H](C(=O)N[C@@H](CC(N)=O)C(=O)N[C@@H](CO)C(=O)N[C@@H](Cc1ccc(O)cc1)C(=O)N[C@@H](CCCNC(=N)N)C(=O)N[C@@H](CCCCN)C(=O)N[C@H](C(=O)N[C@@H](CC(C)C)C(=O)NCC(=O)N[C@@H](CCC(N)=O)C(=O)N[C@@H](CC(C)C)C(=O)N[C@@H](CO)C(=O)N[C@@H](C)C(=O)N[C@@H](CCCNC(=N)N)C(=O)N[C@@H](CCCCN)C(=O)N[C@@H](CC(C)C)C(=O)N[C@@H](CC(C)C)C(=O)N[C@@H](CCC(N)=O)C(=O)N[C@@H](CC(=O)O)C(=O)N[C@H](C(=O)N[C@@H](CCSC)C(=O)N[C@@H](CO)C(=O)N[C@@H](CCCNC(=N)N)C(=O)N[C@@H](CCC(N)=O)C(=O)N[C@@H](CCC(N)=O)C(=O)NCC(=O)N[C@@H](CCC(=O)O)C(=O)N[C@@H](CCCNC(=N)N)C(=O)N[C@@H](CC(N)=O)C(=O)N[C@@H](CCC(N)=O)C(=O)N[C@@H](CCC(=O)O)C(=O)N[C@@H](CCC(N)=O)C(=O)NCC(=O)N[C@@H](C)C(=O)N[C@@H](CCCNC(=N)N)C(=O)N[C@H](C(=O)N[C@@H](CCCNC(=N)N)C(=O)N[C@@H](CC(C)C)C(N)=O)C(C)C)[C@@H](C)CC)C(C)C)[C@@H](C)O [pGRF(1-44)-NH2] | full intrinsic biological activity | close to the same potency | – | – |
| CC[C@H](C)[C@H](NC(=O)[C@H](C)NC(=O)[C@H](CC(=O)O)NC(=O)[C@H](C)NC(=O)[C@@H](N)Cc1ccc(O)cc1)C(=O)N[C@@H](Cc1ccccc1)C(=O)N[C@H](C(=O)N[C@@H](CC(N)=O)C(=O)N[C@@H](CO)C(=O)N[C@@H](Cc1ccc(O)cc1)C(=O)N[C@@H](CCCNC(=N)N)C(=O)N[C@@H](CCCCN)C(=O)N[C@H](C(=O)N[C@@H](CC(C)C)C(=O)NCC(=O)N[C@@H](CCC(N)=O)C(=O)N[C@@H](CC(C)C)C(=O)N[C@@H](CO)C(=O)N[C@@H](C)C(=O)N[C@@H](CCCNC(=N)N)C(=O)N[C@@H](CCCCN)C(=O)N[C@@H](CC(C)C)C(=O)N[C@@H](CC(C)C)C(=O)N[C@@H](CCC(N)=O)C(=O)N[C@@H](CC(=O)O)C(=O)N[C@H](C(=O)N[C@@H](CCSC)C(=O)N[C@@H](CC(N)=O)C(=O)N[C@@H](CCCNC(=N)N)C(=O)N[C@@H](CCC(N)=O)C(=O)N[C@@H](CCC(N)=O)C(=O)NCC(=O)N[C@@H](CCC(=O)O)C(=O)N[C@@H](CCCNC(=N)N)C(=O)N[C@@H](CC(N)=O)C(=O)N[C@@H](CCC(N)=O)C(=O)N[C@@H](CCC(=O)O)C(=O)N[C@@H](CCC(N)=O)C(=O)NCC(=O)N[C@@H](C)C(=O)N[C@@H](CCCCN)C(=O)N[C@H](C(=O)N[C@@H](CCCNC(=N)N)C(=O)N[C@@H](CC(C)C)C(N)=O)C(C)C)[C@@H](C)CC)C(C)C)[C@@H](C)O [bGRF(1-44)-NH2] | full intrinsic biological activity | close to the same potency | same intrinsic activity | about 70 % of hGRF(1-44)-NH2 |
